{"source": "ChEMBL document CHEMBL1150141", "about": "“Cytotoxic diarylheptanoids from the roots of Juglans mandshurica” (J Nat Prod, 2002)", "key": {"[1]": {"system": "HT-29", "experiment": "Cytotoxicity against human HT-29 cells by MTT assay", "assay_type": "functional, cell-based"}, "[2]": {"system": "A549", "experiment": "Cytotoxicity against human A549 cells by MTT assay", "assay_type": "functional, cell-based"}}, "data": [{"smiles": "COc1cc(C2CC(O)CC(C(O)Cc3ccc(O)cc3)O2)ccc1O", "note": "(configuration not stated)", "values": [{"measurement": "IC50", "setting": "[1]", "result": "> 50", "unit": "µg/mL"}, {"measurement": "IC50", "setting": "[2]", "result": "> 50", "unit": "µg/mL"}]}, {"smiles": "COC(=O)C(O)(c1cc2c(c3oc([C@]4(C)C[C@@H]4C)cc(=O)c13)C(=O)c1c(ccc([C@H]3C[C@](C)(N(C)C)[C@H](O[C@@H]4C[C@H](OC)[C@H](O)[C@@H](C)O4)[C@H](C)O3)c1O)C2=O)[C@H]1O[C@H](C)[C@@H](O)[C@@H](OC)[C@@H]1O", "note": "(some centres not stated) [ALTROMYCIN B]", "values": [{"measurement": "IC50", "setting": "[1]", "result": 3.9, "unit": "µg/mL"}, {"measurement": "IC50", "setting": "[2]", "result": 4.2, "unit": "µg/mL"}]}, {"smiles": "COc1ccc2cc1Oc1ccc(c(O)c1OC)CCCCC(O)CC2", "note": "(configuration not stated)", "values": [{"measurement": "IC50", "setting": "[1]", "result": 23.9, "unit": "µg/mL"}, {"measurement": "IC50", "setting": "[2]", "result": 11.5, "unit": "µg/mL"}]}, {"smiles": "CC(C)(O)[C@@H]1CC[C@@]2(C)CCC[C@@](C)(O)[C@@H]2C1", "values": [{"measurement": "IC50", "setting": "[1]", "result": 12.9, "unit": "µg/mL"}, {"measurement": "IC50", "setting": "[2]", "result": 9.9, "unit": "µg/mL"}]}, {"smiles": "COc1cc(CC/C=C/C(=O)CCc2ccc(O)cc2)ccc1O", "values": [{"measurement": "IC50", "setting": "[1]", "result": 8.2, "unit": "µg/mL"}, {"measurement": "IC50", "setting": "[2]", "result": 5.4, "unit": "µg/mL"}]}, {"smiles": "COc1cc2ccc1Oc1cc(ccc1O)CCC(=O)CCCC2", "values": [{"measurement": "IC50", "setting": "[1]", "result": 5.3, "unit": "µg/mL"}, {"measurement": "IC50", "setting": "[2]", "result": 2.2, "unit": "µg/mL"}]}]}
